According to patent US20240207292A1, “BORONIC ACID COMPOUNDS, COMPOSITIONS AND METHODS” (Trustees of Tufts College, priority 2021, published 2024):
Read-outs that look alike come from different tables or passages of the source. Square brackets hold non-standard residues; d marks the D form. Peptide text beside a SMILES is read from it. * marks the point of attachment. X1 = O=C1CN2CCN3CCN(CC(=O)*)CCN(CC2)CC(=O)O[CH2][Lu]([CH2]CO1)[CH2]COC(=O)C3; boroPro = OB(O)[C@@H]1CCCN1*

Assays:
[1] = Radiochemical purity over time at room temperature (radio-HPLC); format: physicochemical
Experimental: The labeling efficiency was analyzed by instant thin layer chromatography (iTLC) and was typically >98%. For iTLC analysis, 1 μL of diluted labeling solution was applied to a strip of iTLC-SA chromatography paper (Agilent P/N A120B12, 114×2.5 mm) and developed in 0.1M citrate buffer (8 cm solvent migration) to assess free ^177Lu (Rf>0.5) and [^177Lu]-6555 (Rf˜0). The iTLC strips were analyzed using an Eckert & Ziegler AR-2000 Radio-TLC Imaging Scanner. The radiochemical purity was analyzed by high performance chromatography (HPLC) and was typically >90%. Briefly, the product was analyzed using a Phenomenex Luna 3.0 μm C18(2), 100 Å, 150 mm×4.6 mm column. Eluent A: 50 mM ammonium acetate in water, eluent B: acetonitrile. Gradient: 2% B from 0-5 min; 2% to 26% B from 5-20 min; 26% to 98% B from 20-25 min; 98% to 2% B from 25-26 min; 2% B from 26-30 min. Flow rate: 1.0 mL/min, Radio-HPLC detector: NaI (Eckert & Zeigler FC-1000), UV: 215 nm. The radiochemical purity remained >90% for three days at room temperature.
(§1) The above depicted radiopharmaceutical [^177Lu]-6952 can be prepared as described in Example 20 using the radiochemical precursor 6952 (Example 21 above). The labeling efficiency was analyzed by instant thin layer chromatography (iTLC) and was typically >98%. […] The iTLC strips were analyzed using an Eckert & Ziegler AR-2000 Radio-TLC Imaging Scanner. The radiochemical purity was analyzed by high performance chromatography (HPLC) and was typically >90%. Briefly, the product was analyzed using a Phenomenex Luna 3.0 μm C18(2), 100A, 150 mm×4.6 mm column. […]
as §1, with “The” for “The above depicted radiopharmaceutical [^177Lu]-6952 can be prepared as described in Example 20 using the radiochemical precursor 6952 (Example 21 above). The”, “>95%.” for “>98%.”, “>95%.” for “>90%.”
The labeling efficiency was analyzed by instant thin layer chromatography (iTLC) and was typically >95%. […]

[2] = tested on: HEK-mFAP tumor xenografts; test: Efficacy and survival study, single injection of [^177Lu]-6522; format: in vivo, Fox Chase SCID mice
Experimental: The aim of the study was to assess the therapeutic efficacy of a single injection of [^177Lu]-6522 by evaluation tumor growth delay and median survival.
[^177Lu]-6522 is provided as described in Example 24 above. The following treatment compositions were prepared: • 1. Vehicle (selected formulation, 100 μL) • 2. Precursor (6522 compound) (80 μL) • 3. [.^77Lu]-6522 15 MBq (80 μL) • 4. [.^77Lu]-6522 30 MBq (80 μL) • 5. [.^77Lu]-6522 60 MBq (80 μL)
A total of 30 HEK-mFAP tumor-bearing mice were used for the study. […]
Mouse health checks were performed throughout the study on a weekly basis including body weight measurements. Tumor growth was monitored weekly with caliper measurements (tumor volume=length×width^2×0.5). […]. Mice were housed 5 to a cage with ad libitum access to food and water in 20° C. ambient temperature, 40%-50% humidity, and 12-hour light/12-hour dark cycle.
The mice were randomized into 5 groups, n=6 mice per group. The treatment compositions (1 through 5 above) were injected IV through the tail vein using a catheter (mounted with a 30 Ga needle). Injected doses were determined using a well counter (Capintec calibration). Tumor growth was monitored weekly with caliper measurements, and the mice were followed for survival.

[3] = tested on: HEK-mFAP tumor xenografts
[4] = for three days at room temperature, formulation with N-acetyl methionine

C[C@@H](NC(=O)c1ccc(CNC(=O)CN2CCN3CCN4CCN(CC2)CC(=O)O[CH2][Lu]([CH2]COC(=O)C3)[CH2]COC(=O)C4)cc1)C(=O)N1CCC[C@H]1B(O)O [[^177Lu]-6555]
radiochemical purity remained [1, 4]: > 90%

C[C@@H](NC(=O)c1ccc(CNC(=O)CN2CCN3CCN4CCN(CC2)CC(=O)O[CH2][Ga]([CH2]COC(=O)C3)[CH2]COC(=O)C4)cc1)C(=O)N1CCC[C@H]1B(O)O [[^68Ga]-6555]
radiochemical purity remained ([1]; for 4 hours at room temperature): > 95%

CC(C)[C@H](NC(=O)CNC(=O)CNC(=O)CN1CCN2CCN3CCN(CC1)CC(=O)O[CH2][Lu]([CH2]COC(=O)C2)[CH2]COC(=O)C3)C(=O)N[C@H](C)C(=O)N1CCC[C@H]1B(O)O [[^177Lu]-6522] (X1-GGV[dA]-boroPro)
survival benefit ([2]; 15 and 30 MBq groups): did not translate in a survival benefit
tumor growth delay ([2]; 15 and 30 MBq groups): tumor growth delay was observed
survival benefit compared to the vehicle or precursor group ([2]; 60 MBq single IV injection): statically significant survival benefit
kidneys uptake ([3]; 4 h p.i., IV): 2.35 ± 0.51 % ID/g
tumor uptake ([3]; 4 h p.i., IV, HEK-mFAP tumor-bearing mice): 33.04 ± 5.29 % ID/g
Blood uptake, Mean (% ID/g) ([3]; 4 h p.i., IV): 0.3063 % ID/g
Blood uptake, Mean (% ID/g) ([3]; 24 h p.i., IV): 0.0085 % ID/g
Blood uptake, Mean (% ID/g) ([3]; 48 h p.i., IV): 0.0029 % ID/g
Blood uptake, Mean (% ID/g) ([3]; 168 h p.i., IV): 0.0015 % ID/g
Bone uptake, Mean (% ID/g) ([3]; 4 h p.i., IV): 1.8037 % ID/g
Bone uptake, Mean (% ID/g) ([3]; 24 h p.i., IV): 0.2658 % ID/g
Bone uptake, Mean (% ID/g) ([3]; 48 h p.i., IV): 0.4106 % ID/g
Bone uptake, Mean (% ID/g) ([3]; 168 h p.i., IV): 0.3959 % ID/g
Brain uptake, Mean (% ID/g) ([3]; 4 h p.i., IV): 0.0281 % ID/g
Brain uptake, Mean (% ID/g) ([3]; 24 h p.i., IV): 0.0036 % ID/g
Brain uptake, Mean (% ID/g) ([3]; 48 h p.i., IV): 0.0033 % ID/g
Brain uptake, Mean (% ID/g) ([3]; 168 h p.i., IV): 0.0020 % ID/g
Heart uptake, Mean (% ID/g) ([3]; 4 h p.i., IV): 0.1528 % ID/g
Heart uptake, Mean (% ID/g) ([3]; 24 h p.i., IV): 0.0332 % ID/g
Heart uptake, Mean (% ID/g) ([3]; 48 h p.i., IV): 0.0311 % ID/g
Heart uptake, Mean (% ID/g) ([3]; 168 h p.i., IV): 0.0256 % ID/g
Kidneys uptake, Mean (% ID/g) ([3]; 4 h p.i., IV): 2.3525 % ID/g
Kidneys uptake, Mean (% ID/g) ([3]; 24 h p.i., IV): 0.9585 % ID/g
Kidneys uptake, Mean (% ID/g) ([3]; 48 h p.i., IV): 0.5318 % ID/g
Kidneys uptake, Mean (% ID/g) ([3]; 168 h p.i., IV): 0.1670 % ID/g
Liver uptake, Mean (% ID/g) ([3]; 4 h p.i., IV): 0.3774 % ID/g
Liver uptake, Mean (% ID/g) ([3]; 24 h p.i., IV): 0.1585 % ID/g
Liver uptake, Mean (% ID/g) ([3]; 48 h p.i., IV): 0.1237 % ID/g
Liver uptake, Mean (% ID/g) ([3]; 168 h p.i., IV): 0.0725 % ID/g
Lung uptake, Mean (% ID/g) ([3]; 4 h p.i., IV): 0.3331 % ID/g
Lung uptake, Mean (% ID/g) ([3]; 24 h p.i., IV): 0.0306 % ID/g
Lung uptake, Mean (% ID/g) ([3]; 48 h p.i., IV): 0.0312 % ID/g
Lung uptake, Mean (% ID/g) ([3]; 168 h p.i., IV): 0.0257 % ID/g
Muscle uptake, Mean (% ID/g) ([3]; 4 h p.i., IV): 0.4649 % ID/g
Muscle uptake, Mean (% ID/g) ([3]; 24 h p.i., IV): 0.0315 % ID/g
Muscle uptake, Mean (% ID/g) ([3]; 48 h p.i., IV): 0.0518 % ID/g
Muscle uptake, Mean (% ID/g) ([3]; 168 h p.i., IV): 0.0604 % ID/g
Pancreas uptake, Mean (% ID/g) ([3]; 4 h p.i., IV): 0.2167 % ID/g
Pancreas uptake, Mean (% ID/g) ([3]; 24 h p.i., IV): 0.0347 % ID/g
Pancreas uptake, Mean (% ID/g) ([3]; 48 h p.i., IV): 0.0275 % ID/g
Pancreas uptake, Mean (% ID/g) ([3]; 168 h p.i., IV): 0.0197 % ID/g
Skin uptake, Mean (% ID/g) ([3]; 4 h p.i., IV): 0.9769 % ID/g
Skin uptake, Mean (% ID/g) ([3]; 24 h p.i., IV): 0.1158 % ID/g
Skin uptake, Mean (% ID/g) ([3]; 48 h p.i., IV): 0.0906 % ID/g
Skin uptake, Mean (% ID/g) ([3]; 168 h p.i., IV): 0.0837 % ID/g
Small intestine uptake, Mean (% ID/g) ([3]; 4 h p.i., IV): 0.2091 % ID/g
Small intestine uptake, Mean (% ID/g) ([3]; 24 h p.i., IV): 0.0580 % ID/g
Small intestine uptake, Mean (% ID/g) ([3]; 48 h p.i., IV): 0.0499 % ID/g
Small intestine uptake, Mean (% ID/g) ([3]; 168 h p.i., IV): 0.0277 % ID/g
Spleen uptake, Mean (% ID/g) ([3]; 4 h p.i., IV): 0.2587 % ID/g
Spleen uptake, Mean (% ID/g) ([3]; 24 h p.i., IV): 0.1418 % ID/g
Spleen uptake, Mean (% ID/g) ([3]; 48 h p.i., IV): 0.1340 % ID/g
Spleen uptake, Mean (% ID/g) ([3]; 168 h p.i., IV): 0.1437 % ID/g
Stomach uptake, Mean (% ID/g) ([3]; 4 h p.i., IV): 0.1706 % ID/g
Stomach uptake, Mean (% ID/g) ([3]; 24 h p.i., IV): 0.0528 % ID/g
Stomach uptake, Mean (% ID/g) ([3]; 48 h p.i., IV): 0.0331 % ID/g
Stomach uptake, Mean (% ID/g) ([3]; 168 h p.i., IV): 0.0210 % ID/g
Tumor uptake, Mean (% ID/g) ([3]; 4 h p.i., IV): 33.0435 % ID/g
Tumor uptake, Mean (% ID/g) ([3]; 24 h p.i., IV): 12.9944 % ID/g
Tumor uptake, Mean (% ID/g) ([3]; 48 h p.i., IV): 7.6749 % ID/g
Tumor uptake, Mean (% ID/g) ([3]; 168 h p.i., IV): 3.9910 % ID/g
kidneys uptake ([3]; day 7 p.i., IV): 0.17 ± 0.02 % ID/g
localization in tumor and normal tissue ([3]; up to 168 h p.i.): high localization in tumor xenografts and low normal tissue uptake

C[C@@H](NC(=O)[C@H]1CC[C@H](CNC(=O)CN2CCN3CCN4CCN(CC2)CC(=O)O[CH2][Lu]([CH2]COC(=O)C3)[CH2]COC(=O)C4)CC1)C(=O)N1CCC[C@H]1B(O)O [[^177Lu]-6952]
radiochemical purity remained [1, 4]: > 90%
